We go through two molecules from US5811445A, “Method of preventing abnormal stimulation of AT1 and AT2 receptors” (Roussel Uclaf, priority 1994, dated 1998).

In experiment [1] the test system is angiotensin II (pressure effects). The experiment in a line: Test for antagonistic activity of angiotensin II in the demedullated rat. It counts as in vivo, Male Sprague-Dawley rats. The conditions noted are these: IV, inhibition of pressure effects of angiotensin II (0.75 micrograms/kg), read-out: ID50 IV. Here is the method: 3 - Test for antagonistic activity of angiotensin II in the demedullated rat
Male Sprague-Dawley rats (250 to 350 g) are anaesthetized by an intraperitoneal injection with sodium pentobarbital (60 mg/kg). The diastolic arterial pressure is recorded by means of a heparin catheter (PE50) introduced into the left carotid of the animal, and connected to a pressure processor (Gould, Pressure Processor) via a Gould pressure sensor.
A catheter is introduced into the right jugular vein of the animal in order to allow injection of the molecules being studied.
The animal is placed under assisted respiration. A bilateral section of the vagus nerves is carried out. The rat is then demedullated.
After a sufficient stabilization period, study of the antagonism of the molecules vis-a-vis angiotensin II (Hypertensin, CIBA) is carried out in the following manner:
1 - Three consecutive injections of angiotensin II (0.75 micrograms/kg) 15 minutes apart allow a reproducible and stable pressure response to be obtained.
2 - While maintaining a periodicity of 15 minutes for the administration of angiotensin II, the molecules (0.01 to 10 mg/kg) are injected 5 minutes before the angiotensin II.
The pressure effects of angiotensin II in the presence of the antagonist are expressed as a percentage of the pressure effects of angiotensin II administered alone. The 50% inhibitory dose (ID50) of the effect studied is thus determined.
Each animal is considered as its own control.

Experiment [2] concerns the target T1, AT2 receptor of angiotensin II (Oryctolagus cuniculus, UniProt G1T351).
T1 construct: A fresh membrane preparation obtained from rabbit's uterus is used; from tissue; host or cells: uterus membranes of estradiol-treated rabbits
T1 sequence (G1T351 1-363): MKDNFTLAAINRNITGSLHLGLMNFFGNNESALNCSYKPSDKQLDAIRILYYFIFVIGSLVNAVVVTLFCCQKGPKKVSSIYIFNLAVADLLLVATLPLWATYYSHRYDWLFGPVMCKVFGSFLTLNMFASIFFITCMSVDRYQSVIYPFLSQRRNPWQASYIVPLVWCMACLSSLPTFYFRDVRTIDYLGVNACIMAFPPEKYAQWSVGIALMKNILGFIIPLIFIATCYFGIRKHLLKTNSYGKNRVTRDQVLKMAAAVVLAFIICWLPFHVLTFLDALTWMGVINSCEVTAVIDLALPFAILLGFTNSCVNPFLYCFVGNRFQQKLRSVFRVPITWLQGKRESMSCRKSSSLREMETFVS
Kind of experiment: Test on the AT2 receptor of angiotensin II (displacement of 125I angiotensin II, rabbit uterus membranes). It counts as binding. The following applies: rabbit uterus membrane (estradiol pre-treated), 125I angiotensin II, 25° C., 150 minutes; read-out: AT2 Receptor IC50. Here is the method:
2) Test on the AT2 receptor of angiotensin II
The tissue is ground up in a polytron in a 50 mM Tris buffer pH 7.4, and the grinding is followed by 3 centrifugations at 30,000 g for 15 minutes, with intermediate take up of the pellets in the Tris buffer pH 7.4.
The homogenate obtained is preincubated for 20 minutes at 25° C. in the presence of 10 mM dithiothreitol, then brought back to 0°-4° C.
The product is first tested at 3.10^-5 M three times. When the tested product displaces more than 50% of the radioactivity specifically bound to the receptor, it is tested again according to a range of 7 concentrations in order to determine the concentration which inhibits by 50% the radioactivity specifically bound to the receptor. In this way the 50% inhibitory concentration is determined.
(§1) After incubation at 25° C. for 150 minutes, placing in a water-bath at 0° C. for 5 minutes, filtration under vacuum, and rinsing with Tris buffer pH 7.4, the radioactivity is counted in the presence of a scintillating solid.

Experiment [3] deals with angiotensin II (pressure effects). Kind of experiment: Test for antagonistic activity of angiotensin II in the demedullated rat. The format is in vivo, Male Sprague-Dawley rats. The following applies: PO, inhibition of pressure effects of angiotensin II (0.75 micrograms/kg), read-out: ID50 PO.
Experiment [4] concerns the target T2, AT1 receptor of angiotensin II (Rattus norvegicus, UniProt P25095).
T2 construct: A fresh membrane preparation obtained from rat's liver is used; from tissue; host or cells: rat liver membranes
T2 sequence (P25095 1-359): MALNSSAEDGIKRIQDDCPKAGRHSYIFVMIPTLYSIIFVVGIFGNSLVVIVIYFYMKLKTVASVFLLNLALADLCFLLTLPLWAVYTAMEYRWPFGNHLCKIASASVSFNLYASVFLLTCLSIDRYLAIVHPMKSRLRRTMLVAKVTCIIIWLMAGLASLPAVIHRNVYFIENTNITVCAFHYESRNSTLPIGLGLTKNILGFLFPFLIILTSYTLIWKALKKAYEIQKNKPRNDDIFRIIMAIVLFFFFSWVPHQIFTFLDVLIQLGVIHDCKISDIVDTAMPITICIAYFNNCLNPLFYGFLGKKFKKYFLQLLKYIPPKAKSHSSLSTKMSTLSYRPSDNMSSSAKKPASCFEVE
The experiment in a line: Test on the AT1 receptor of angiotensin II (displacement of 125I angiotensin II, rat liver membranes). The format is binding. The following applies: rat liver membrane, 125I angiotensin II, 25° C., 150 minutes; read-out: AT1 Receptor IC50. The protocol:
1 - Test on the AT1 -receptor of angiotensin II
A fresh membrane preparation obtained from rat's liver is used. The tissue is ground up in a polytron in a 50 mM Tris buffer pH 7.4, the grinding is followed by 3 centrifugations at 30,000 g for 15 minutes with intermediate take up of the pellets in the Tris buffer pH 7.4.
(The product is first tested with 3×10^-5 M three times). When the tested product displaces more than 50% of the radioactivity specifically bound to the receptor, it is tested again according to a range of 7 concentrations in order to determine the concentration which inhibits by 50% the radioactivity specifically bound to the receptor. In this way the 50% inhibitory concentration is determined).
as §1

Read-outs that look alike come from different tables or passages of the source.

Consider `CCCc1nc(SC(F)F)c(C(=O)O)n1Cc1ccc(-c2ccccc2S(=O)(=O)NC(=O)NCC2CCCCC2)cc1` [Example 45, 1-((2'-(((((cyclohexylmethyl)amino)carbonyl)amino)sulphonyl) (1,1'-biphenyl 4-yl)methyl) 4-(difluoromethyl)thio) 2-propyl 1H-imidazole 5-carboxylic acid], for which the ED50 came to 0.22 mg/kg in experiment [1] and 1.1 mg/kg in experiment [3]. Also, the figures for the IC50 in experiment [2] and in experiment [4] were 1.7 nM and 0.07 nM, respectively.
The corresponding values for `CCCc1nc(SC)c(C(=O)O)n1Cc1ccc(-c2ccccc2S(=O)(=O)NC(=O)NCc2ccccc2)cc1` [Example 25, 4-(methylthio) 1-[(2'-(((((phenylmethyl)amino)carbonyl)amino)sulphonyl) (1,1'-biphenyl) 4-yl)methyl] 2-propyl 1H-imidazole 5-carboxylic acid] are 0.22 mg/kg, 1.45 mg/kg, 5.9 nM and 0.2 nM.
